Experimental data published in patent US20260078103A1, “ISOQUINOLONES AS PI3K INHIBITORS” (OnKure, Inc., priority 2022, published 2026).
Like-named read-outs stand apart in the source and are kept apart here.

Legend:
Assay type in all cases: cell-based
[1] = tested on: phosphorylation of AKT (pAKT) in SKBR3 cells express WT PI3Ka; assay: In vitro cell pAKT (Ser473) HTRF, SKBR3 cells; details: cellular pAKT
In short: (§1)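 pAKT (Ser473) was quantified by HTRF in lysates from cells exposed 6 h at 37 °C to 10-point compound series, with T47D in insulin-supplemented RPMI/10% FBS and SKBR3 in McCoy's 5a/10% FBS. Controls: 0.1% DMSO (high) and 10 uM alpelisib (low). IC50 from sigmoidal curve fitting.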

[2] = tested on: SKBR3 cells express WT PI3Ka; assay: In vitro cell proliferation, SKBR3 cells (CellTiter-Glo); details: inhibition of proliferation
In short: (§2)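 EC50 values derive from a four-parameter logistic fit of luminescence-based (CellTiter-Glo) inhibition, referenced to 0.1% DMSO and 10 uM Alpelisib controls. Compound exposure lasted 72 h at 37 °C.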

[3] = tested on: T47D cells expressing mutant PI3Ka (H1047R); assay: In vitro cell proliferation, T47D cells (CellTiter-Glo); details: inhibition of proliferation, read-out: Avg T-47D EC50
In short: as §2

[4] = tested on: phosphorylation of AKT (pAKT) in T47D cells expressing mutant PI3Ka (H1047R); assay: In vitro cell pAKT (Ser473) HTRF, T47D cells; details: cellular pAKT, T47D cells, mutant PI3Ka (H1047R), 6 hours, read-out: Avg T-47D IC50
In short: as §1

Row | SMILES | IC50 ([1]; 6 hours) [nM] | EC50 ([2]; 72 hours) [nM] | EC50 ([3]; 72 hours) [nM] | IC50 [4] [nM] | IC50 ([1]; Homo sapiens, SK-BR-3, 6 h) [nM] | EC50 ([2]; Homo sapiens, SK-BR-3, 72 h) [nM] | EC50 ([3]; Homo sapiens, T47D, 72 h) [nM] | IC50 ([4]; Homo sapiens, T47D, 6 h) [nM]
1 | C[C@@H](Nc1ccccc1C(=O)O)c1cc(F)cc2c(=O)n(C)c(C34CC(C(F)(F)F)(C3)C4)cc12 [Example 521] | > 15000 | 2000 to 15000 | 1 to 500 | 1 to 500 | – | – | – | –
2 | CCc1ncc(-c2cc3c([C@@H](C)Nc4ccccc4C(=O)O)cc(F)cc3c(=O)n2C)s1 [Example 524] | – | – | – | – | > 15000 | > 15000 | 1 to 500 | 1 to 500
3 | Cc1cc([C@@H](C)Nc2ccccc2C(=O)O)c2c(F)c(C3CC3)n(C)c(=O)c2c1 [Example 529] | – | – | – | – | > 15000 | > 15000 | 1 to 500 | 1 to 500
4 | CCOc1ncc(-c2c(F)c3c([C@@H](C)Nc4ccccc4C(=O)O)cc(C)cc3c(=O)n2C)s1 [Example 536] | – | – | – | – | > 15000 | > 15000 | 1 to 500 | 1 to 500
5 | C[C@@H](Nc1ccccc1C(=O)O)c1cc(F)cc2c(=O)n(C)c(-c3cnc(C(F)F)s3)cc12 [Example 539] | – | – | – | – | > 15000 | > 15000 | 1 to 500 | 1 to 500
6 | C[C@@H](Nc1ccccc1C(=O)O)c1cc(F)cc2c(=O)n(C)c(-c3ccc(COC(F)(F)F)nc3)cc12 [Example 540] | – | – | – | – | > 15000 | > 15000 | 1 to 500 | 1 to 500
7 | C#Cc1ccc(N[C@H](C)c2cc(F)cc3c(=O)n(C)c(-c4ccc(OCC(F)(F)F)nc4)cc23)c(C(=O)O)n1 [Example 542] | 2000 to 15000 | 2000 to 15000 | 1 to 500 | 1 to 500 | – | – | – | –
8 | C[C@@H](Nc1ccccc1C(=O)O)c1cc(F)cc2c(=O)n(C)c(-c3cnc(-c4cn(C)nc4F)c(F)c3)cc12 [Example 543] | > 15000 | > 15000 | 1 to 500 | 1 to 500 | – | – | – | –
9 | C[C@@H](Nc1ccccc1C(=O)O)c1cc(F)cc2c(=O)n(C)c(-c3cnc(CF)s3)cc12 [Example 545] | – | – | – | – | > 15000 | > 15000 | 1 to 500 | 1 to 500
10 | C[C@@H](Nc1ccccc1C(=O)O)c1cc(F)cc2c(=O)n(C)c(-c3ccc(OC4CC(F)(F)C4)nc3)cc12 [Example 546] | > 15000 | > 15000 | 1 to 500 | 1 to 500 | – | – | – | –
11 | C[C@@H](Nc1ccccc1C(=O)O)c1cc(F)cc2c(=O)n(C)c(-c3ccc(OCC(F)(F)F)nc3)c(F)c12 [Example 547] | – | – | – | – | > 15000 | > 15000 | 500 to 2000 | 1 to 500
12 | C[C@@H](Nc1ccccc1C(=O)O)c1cc(F)cc2c(=O)n(C)c(-c3cnc(-c4cc(F)c(F)cc4F)c(F)c3)cc12 [Example 548] | > 15000 | 2000 to 15000 | 1 to 500 | 1 to 500 | – | – | – | –
13 | Cc1cc([C@@H](C)Nc2ccccc2C(=O)O)c2cc(N3CCN(c4ccc(C)nn4)CC3)n(C)c(=O)c2c1 [Example 551] | – | – | – | – | 2000 to 15000 | 2000 to 15000 | 1 to 500 | 1 to 500
14 | C[C@@H](Nc1ccccc1C(=O)O)c1cc(F)cc2c(=O)n(C)c(Br)cc12 [Example 555] | – | – | – | – | > 15000 | > 15000 | 2000 to 15000 | 500 to 2000
15 | Cc1ccc(N[C@H](C)c2cc(F)cc3c(=O)n(C)c(-c4ccc(OCC(F)(F)F)nc4)cc23)c(C(=O)O)n1 [Example 557] | > 15000 | 2000 to 15000 | 500 to 2000 | 1 to 500 | – | – | – | –
16 | C[C@@H](Nc1ccccc1C(=O)O)c1cc(F)cc2c(=O)n(C)c(I)cc12 [Example 559] | – | – | – | – | > 15000 | > 15000 | 500 to 2000 | 500 to 2000

Row | SMILES | IC50 ([1]; 6 hours) [nM] | EC50 ([2]; 72 hours) [nM] | EC50 ([3]; 72 hours) [nM] | IC50 [4] [nM] | IC50 ([1]; Homo sapiens, SK-BR-3, 6 h) [nM] | EC50 ([2]; Homo sapiens, SK-BR-3, 72 h) [nM] | EC50 ([3]; Homo sapiens, T47D, 72 h) [nM] | IC50 ([4]; Homo sapiens, T47D, 6 h) [nM]
17 | CC(Nc1ccccc1C(=O)O)c1cc(F)cc2c(=O)n(C)c(-c3cnc(-c4ccc(F)cc4F)c(F)c3)cc12 (centres unmarked) [Example 560] | > 15000 | 2000 to 15000 | 1 to 500 | 1 to 500 | – | – | – | –
18 | CC(Nc1ccccc1C(=O)O)c1cc(F)cc2c(=O)n(C)c(-c3ccc(OC4CC4)nc3)c(F)c12 (centres unmarked) [Example 561] | > 15000 | > 15000 | 1 to 500 | 1 to 500 | – | – | – | –
19 | Cc1ncc(F)cc1-c1ncc(-c2c(F)c3c([C@@H](C)Nc4ccccc4C(=O)O)cc(F)cc3c(=O)n2C)cc1F [Example 562] | – | – | – | – | 2000 to 15000 | > 15000 | 1 to 500 | 1 to 500
20 | CC(Nc1ccccc1C(=O)O)c1cc(F)cc2c(=O)n(C)c(-c3cnc(OC4CC4)c(F)c3)c(F)c12 (centres unmarked) [Example 565] | > 15000 | > 15000 | 1 to 500 | 1 to 500 | – | – | – | –
21 | C[C@@H](Nc1ccccc1C(=O)O)c1cc(F)cc2c(=O)n(C)c(-c3cnc(OCC(F)(F)F)s3)cc12 [Example 568] | – | – | – | – | > 15000 | > 15000 | 1 to 500 | 1 to 500
22 | C[C@@H](Nc1ccccc1C(=O)O)c1cc(F)cc2c(=O)n(C)c(-c3cnc(OCC(F)(F)F)c(F)c3)c(F)c12 [Example 569] | – | – | – | – | > 15000 | 2000 to 15000 | 500 to 2000 | 1 to 500
23 | C[C@@H](Nc1ccccc1C(=O)O)c1cc(F)cc2c(=O)n(C)c(C34CC(CC(F)(F)F)(C3)C4)cc12 [Example 570] | – | – | – | – | > 15000 | > 15000 | 1 to 500 | 1 to 500
24 | C[C@@H](Nc1ccccc1C(=O)O)c1cc(F)cc2c(=O)n(C)c(C34CC(C(F)(F)C(F)(F)F)(C3)C4)cc12 [Example 571] | – | – | – | – | > 15000 | 2000 to 15000 | 1 to 500 | 1 to 500
25 | C[C@@H](Nc1ccccc1C(=O)O)c1cc(F)cc2c(=O)n(C)c(-c3cnc(-c4cnc(C(F)(F)F)nc4)c(F)c3)cc12 [Example 574] | – | – | – | – | > 15000 | 2000 to 15000 | 1 to 500 | 1 to 500
26 | C[C@@H](Nc1ccccc1C(=O)O)c1cc(F)cc2c(=O)n(C)c(-c3cnc(-c4ccnc(C(F)(F)F)n4)c(F)c3)cc12 [Example 575] | – | – | – | – | > 15000 | > 15000 | 2000 to 15000 | 500 to 2000
27 | Cc1nc(C(F)(F)F)c(F)cc1-c1ncc(-c2cc3c([C@@H](C)Nc4ccccc4C(=O)O)cc(F)cc3c(=O)n2C)cc1F [Example 576] | – | – | – | – | > 15000 | 2000 to 15000 | 1 to 500 | 1 to 500
28 | C[C@@H](Nc1ccccc1C(=O)O)c1cc(F)cc2c(=O)n(C)c(C34CC(c5ccc(F)cc5F)(C3)C4)cc12 [Example 578] | – | – | – | – | 2000 to 15000 | 2000 to 15000 | 1 to 500 | 1 to 500
29 | C[C@@H](Nc1ccccc1C(=O)O)c1cc(F)cc2c(=O)n(C)c(-c3cnc(C4(CC(F)(F)F)CC4)nc3)cc12 [Example 579] | – | – | – | – | > 15000 | 2000 to 15000 | 1 to 500 | 1 to 500
30 | C[C@@H](Nc1ccccc1C(=O)O)c1cc(F)cc2c(=O)n(C)c(C34CC(c5cnn(C(F)F)c5)(C3)C4)c(F)c12 [Example 580] | – | – | – | – | 2000 to 15000 | 2000 to 15000 | 1 to 500 | 1 to 500
31 | COc1ncc(-c2c(F)c3c([C@@H](C)Nc4ccccc4C(=O)O)cc(F)cc3c(=O)n2C)s1 [Example 581] | – | – | – | – | > 15000 | > 15000 | 1 to 500 | 1 to 500
32 | Cc1ncc(-c2c(F)c3c([C@@H](C)Nc4ccccc4C(=O)O)cc(F)cc3c(=O)n2C)s1 [Example 582] | – | – | – | – | > 15000 | > 15000 | 1 to 500 | 1 to 500
